Patent US12016864B2, “LOX enzyme inhibiting methods and compositions” (ANOVIA BIOSCIENCES, INC., priority 2021, dated 2024)

Target: T1, Recombinant human LOXL2 (lysyl oxidase like 2) (Homo sapiens, UniProt Q9Y4K0)
T1 construct: purchased R&D systems
T1 sequence (Q9Y4K0 26-774): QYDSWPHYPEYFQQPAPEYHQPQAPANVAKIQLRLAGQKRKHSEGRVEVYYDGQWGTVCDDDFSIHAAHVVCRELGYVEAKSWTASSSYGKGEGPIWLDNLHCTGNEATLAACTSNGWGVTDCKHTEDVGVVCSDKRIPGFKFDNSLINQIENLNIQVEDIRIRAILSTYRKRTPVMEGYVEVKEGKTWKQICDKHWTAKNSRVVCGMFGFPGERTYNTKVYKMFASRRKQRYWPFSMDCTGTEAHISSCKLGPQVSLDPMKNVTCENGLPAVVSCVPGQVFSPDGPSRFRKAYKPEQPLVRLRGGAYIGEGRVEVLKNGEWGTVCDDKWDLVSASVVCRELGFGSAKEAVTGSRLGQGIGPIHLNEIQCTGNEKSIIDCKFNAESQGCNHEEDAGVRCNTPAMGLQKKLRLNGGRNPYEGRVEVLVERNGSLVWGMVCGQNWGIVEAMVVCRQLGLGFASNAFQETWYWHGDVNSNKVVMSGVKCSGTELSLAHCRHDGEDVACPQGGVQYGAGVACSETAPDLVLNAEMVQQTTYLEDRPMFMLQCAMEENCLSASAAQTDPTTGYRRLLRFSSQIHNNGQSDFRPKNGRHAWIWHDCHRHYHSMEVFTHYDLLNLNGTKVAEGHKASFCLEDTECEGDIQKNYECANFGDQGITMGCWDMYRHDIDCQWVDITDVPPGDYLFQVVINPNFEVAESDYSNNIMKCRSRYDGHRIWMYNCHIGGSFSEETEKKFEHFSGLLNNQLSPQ
Test: LOXL2 inhibition assay, fluorometric (cadaverine / HRP / Amplex Red)
Type: biochemical
Settings: recombinant human LOXL2 130 nM; 30 min preincubation at 37° C.; 2.5 mM cadaverine; read-out: Activity Range LOXL2
In short: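 Recombinant human LOXL2 or LOXL3 in 1.2 M urea, 50 mM sodium borate pH 8.0, 10 mM CaCl, preincubated with compound 30 min at 37 °C. Cadaverine substrate added; H2O2 detected by HRP/Amplex Red fluorescence, read kinetically for 60 min at 37 °C. Initial-rate slopes, background-subtracted and normalised to DMSO, fitted to a 4-parameter curve with bottom fixed at 0.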

Structure (SMILES)	IC50 [µM]
NCc1ccnc(S(=O)(=O)C[C@@H]2C[C@H](c3ccccc3)CN2S(=O)(=O)N2CCOCC2)c1 (racemic) [Example 195, Cis-(2-(((1-(Morpholinosulfonyl)-4-phenylpyrrolidin-2-yl)methyl)sulfonyl)pyridin-4-yl)methanamine 2,2,2-trifluoroacetate]	≤ 0.5
NCc1ccnc(S(=O)(=O)C[C@@H]2C[C@H](c3ccccc3)CN2S(=O)(=O)N2CCS(=O)(=O)CC2)c1 (racemic) [Example 196, cis-4-((2-(((4-(Aminomethyl)pyridin-2-yl)sulfonyl)methyl)-4-phenylpyrrolidin-1-yl)sulfonyl)thiomorpholine 1,1-dioxide 2,2,2-trifluoroacetate]	≤ 0.5

Further lines, results first:

IC50 [µM]	Structure (SMILES)
≤ 0.5	NCc1ccnc(S(=O)(=O)C[C@H]2C[C@@H](c3ccccc3)CN2S(=O)(=O)N2CCOCC2)c1 (single isomer, unassigned) [Example 195A]
≤ 0.5	NCc1ccnc(S(=O)(=O)C[C@@H]2C[C@H](c3ccccc3)CN2S(=O)(=O)N2CCOCC2)c1 (single isomer, unassigned) [Example 195B]
≤ 0.5	NCc1ccnc(S(=O)(=O)C[C@@H]2C[C@H](c3ccccc3)CN2S(=O)(=O)N2CCS(=O)(=O)CC2)c1 [Example 196A, 4-(((2S,4R)-2-(((4-(aminomethyl)pyridin-2-yl)sulfonyl)methyl)-4-phenylpyrrolidin-1-yl)sulfonyl)thiomorpholine 1,1-dioxide 2,2,2-trifluoroacetate]
≤ 0.5	NCc1ccnc(S(=O)(=O)C[C@H]2C[C@@H](c3ccccc3)CN2S(=O)(=O)N2CCS(=O)(=O)CC2)c1 [Example 196B, 4-(((2R,4S)-2-(((4-(aminomethyl)pyridin-2-yl)sulfonyl)methyl)-4-phenylpyrrolidin-1-yl)sulfonyl)thiomorpholine 1,1-dioxide 2,2,2-trifluoroacetate]
